Patent US11013780B2, “Methods of treating female infertility” (Myovant Sciences GmbH, priority 2016, dated 2021)
pEC50: −log10 of the molar value. Read-outs that look alike come from different tables or passages of the source. Where a SMILES comes first, the peptide text is derived from it. [ ]: non-standard residue; d: D form. Arg(Me) = CNC(=N)NCCC[C@H](N)C(=O)O; Hyp = O=C(O)[C@@H]1C[C@@H](O)CN1; azaGly = NNC(=O)O

How the values were obtained:
rat KISS1R = target: T1, rat KISS1R (Rattus norvegicus, UniProt Q924U1); assay: Intracellular Ca2+ mobilization (fluorometric imaging plate reader), rat KISS1R; type: cell-based
T1 construct: expressed in transfected cells; host or cells: Chinese hamster ovary dihydrofolate reductase negative cells
Protocol: (§1) The effects of API-MA on intracellular Ca^2+ mobilization in KISS1R-expressing recombinant cells were evaluated by performing the fluorometric imaging plate reader assay.

monkey KISS1R = assay: Intracellular Ca2+ mobilization (fluorometric imaging plate reader), monkey KISS1R; type: cell-based
Protocol: as §1

[1] = Single dose PK, phase 1, healthy European men; type: in vivo, human; conditions: for Tmax / half-life / CL/F / AUC(0-inf) / AUC(0-t) / Cmax / Vd/F / CL renal / dose excreted: male, human; for Tmax / half-life / CL/F / AUC(0-inf) / AUC(0-t) / Cmax / Vd/F: plasma; for Vd/F: read-out: Vz/F; for CL renal: urine and plasma, read-out: CLr (renal clearance) (converted); for dose excreted: urine
Protocol: The study was conducted in France.
Eighty-two healthy European male subjects aged 50 to 76 years were enrolled into nine cohorts. 81/82 subjects (98.8%) were white and 1/82 subject (1.2%) was black/African American. Subjects enrolled in the first six cohorts received 0.001, 0.003, 0.01, 0.03, 0.1, or 0.3 mg of API-MA or placebo by single SC bolus. In the 0.3 mg cohort, 6 subjects received API-MA and two received placebo. In the remaining cohorts, 7 subjects received API-MA and three received placebo. Subjects enrolled in the seventh, eighth, and ninth cohorts received 1, 3, or 6 mg of API-MA or placebo by single 2-hour SC infusion. In these cohorts, 6 subjects received API-MA and two received placebo.
To measure urinary excretion of API-MA, urine specimens were collected at the following nominal times: from 12 hours prior to dosing until dosing and 0 to 6, 6 to 12, 12 to 24, 24 to 48 and 48 to 72 hours postdose.
To measure urinary excretion of API-MA, urine specimens were collected at the following nominal times: from 12 hours prior to dosing until dosing and 0 to 6, 6 to 12, 12 to 24, 24 to 48, and 48 to 72 hours after the start of the infusion.

human KISS1R = human KISS1R (Homo sapiens, UniProt Q969F8); assay: Intracellular Ca2+ mobilization (fluorometric imaging plate reader), human KISS1R; type: cell-based; set-up: expressed in transfected cells; host or cells: Chinese hamster ovary dihydrofolate reductase negative cells
Protocol: as §1

[2] = single SC 0.001 mg, geometric mean
[3] = single SC 0.003 mg, geometric mean
[4] = single SC 0.01 mg, geometric mean
[5] = single SC 0.03 mg, geometric mean
[6] = single SC 0.1 mg, geometric mean
[7] = single SC 0.3 mg, geometric mean
[8] = subcutaneous, 2-hour INF 1 mg, geometric mean
[9] = subcutaneous, 2-hour INF 3 mg, geometric mean
[10] = subcutaneous, 2-hour INF 6 mg, geometric mean
[11] = single SC 0.001 mg, only 1 subject above LLOQ

T1 sequence (Q924U1 whole entry): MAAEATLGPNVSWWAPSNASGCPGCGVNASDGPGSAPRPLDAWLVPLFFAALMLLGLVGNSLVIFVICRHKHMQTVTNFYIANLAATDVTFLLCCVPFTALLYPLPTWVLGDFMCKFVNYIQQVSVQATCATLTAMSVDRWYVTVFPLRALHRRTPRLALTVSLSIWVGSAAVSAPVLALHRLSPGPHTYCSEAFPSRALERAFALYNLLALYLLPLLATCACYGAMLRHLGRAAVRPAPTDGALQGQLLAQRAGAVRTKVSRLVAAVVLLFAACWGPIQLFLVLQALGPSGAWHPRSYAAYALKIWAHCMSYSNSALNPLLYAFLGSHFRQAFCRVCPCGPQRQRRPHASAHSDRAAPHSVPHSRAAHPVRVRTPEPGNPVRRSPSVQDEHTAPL
human KISS1R, sequence (Q969F8 whole entry): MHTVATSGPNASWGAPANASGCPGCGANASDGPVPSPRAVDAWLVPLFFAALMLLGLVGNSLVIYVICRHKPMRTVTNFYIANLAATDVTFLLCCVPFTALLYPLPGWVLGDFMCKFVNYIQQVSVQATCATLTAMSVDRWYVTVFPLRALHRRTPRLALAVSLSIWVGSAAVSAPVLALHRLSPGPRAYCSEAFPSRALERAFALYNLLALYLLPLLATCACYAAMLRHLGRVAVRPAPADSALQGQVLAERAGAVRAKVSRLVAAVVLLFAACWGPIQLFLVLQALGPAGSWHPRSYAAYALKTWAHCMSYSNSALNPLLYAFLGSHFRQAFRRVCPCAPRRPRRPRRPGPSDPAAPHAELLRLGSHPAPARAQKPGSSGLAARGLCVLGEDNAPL

Q: Which results are given for `CC(=O)O.CNC(=N)NCCC[C@H](NC(=O)[C@H](CC(C)C)NC(=O)NNC(=O)[C@H](Cc1ccccc1)NC(=O)[C@@H](NC(=O)[C@H](CC(N)=O)NC(=O)[C@@H]1C[C@@H](O)CN1C(=O)[C@@H](Cc1ccc(O)cc1)NC(C)=O)[C@@H](C)O)C(=O)N[C@@H](Cc1c[nH]c2ccccc12)C(N)=O` [API-MA, 2-(N-Acetyl-D-tyrosyl-trans-4-hydroxy-L-prolyl-Lasparaginyl-L-threonyl-L-phenylalanyl)-hydrazinocarbonyl-L-leucyl-Nω-methyl-L-arginyl-L-tryptophanamide monoacetate] (Ac-[dY][Hyp]NTF[azaGly]L[Arg(Me)]W-NH2)?
A: pEC50 (rat KISS1R): 9.20; Ratio of EC50 of API-MA to kisspeptin (45-54) (rat KISS1R; rat KISS1R): 2.0; pEC50 (monkey KISS1R; CHO dhfr- cells expressing monkey KISS1R): 10.13; Ratio of EC50 of API-MA to kisspeptin (45-54) (monkey KISS1R; monkey KISS1R): 0.94; Ae(0-t) (urine) ([1]; 2-hour INF 1 mg, geometric mean (% CV)): 29971.789 (27.97) ng; Ae(0-t) (urine) ([1]; 2-hour INF 3 mg, geometric mean (% CV)): 118170.544 (41.46) ng; Ae(0-t) (urine) ([1]; 2-hour INF 6 mg, geometric mean (% CV)): 322822.342 (10.34) ng; Tmax ([1]; SC bolus, read-out: Median Tmax, range over cohorts): 0.5 to 0.75 h; half-life ([1]; sc, 0.001 mg, single SC 0.001 mg, read-out: T½ (median) (converted)): 1.8 h; half-life ([1]; sc, 0.003 mg, single SC 0.003 mg, read-out: T½ (median) (converted)): 1.43 h; half-life ([1]; sc, 0.01 mg, single SC 0.01 mg, read-out: T½ (median) (converted)): 2.17 h; half-life ([1]; sc, 0.03 mg, single SC 0.03 mg, read-out: T½ (median) (converted)): 2.61 h; half-life ([1]; sc, 0.1 mg, single SC 0.1 mg, read-out: T½ (median) (converted)): 3.08 h; half-life ([1]; sc, 0.3 mg, single SC 0.3 mg, read-out: T½ (median) (converted)): 3.45 h; CL/F ([1]; sc, 2-hour INF 1 mg, geometric mean): 380 mL/min; CL/F ([1]; sc, 2-hour INF 3 mg, geometric mean): 353 mL/min; CL/F ([1]; sc, 2-hour INF 6 mg, geometric mean): 315 mL/min; AUC(0-inf) [1, 2]: 0.0475 ng·h/mL; AUC(0-t) [1, 2]: 0.0267 ng·h/mL; CL/F [1, 2]: 351 mL/min; Cmax [1, 2]: 0.0133 ng/mL; Vd/F [1, 2]: 63.9 L; Tmax ([1]; single SC 0.001 mg, read-out: Tmax (median)): 0.5 h; AUC(0-inf) [1, 3]: 0.122 ng·h/mL; AUC(0-t) [1, 3]: 0.101 ng·h/mL; CL/F [1, 3]: 409 mL/min; Cmax [1, 3]: 0.0424 ng/mL; Vd/F [1, 3]: 55.9 L; Tmax ([1]; single SC 0.003 mg, read-out: Tmax (median)): 0.75 h; AUC(0-inf) [1, 4]: 0.371 ng·h/mL; AUC(0-t) [1, 4]: 0.345 ng·h/mL; CL/F [1, 4]: 449 mL/min; Cmax [1, 4]: 0.14 ng/mL; Vd/F [1, 4]: 85.6 L; Tmax ([1]; single SC 0.01 mg, read-out: Tmax (median)): 0.5 h; AUC(0-inf) [1, 5]: 1.11 ng·h/mL; AUC(0-t) [1, 5]: 1.07 ng·h/mL; CL/F [1, 5]: 451 mL/min; Cmax [1, 5]: 0.34 ng/mL; Vd/F [1, 5]: 96 L; Tmax ([1]; single SC 0.03 mg, read-out: Tmax (median)): 0.5 h; AUC(0-inf) [1, 6]: 3.94 ng·h/mL; AUC(0-t) [1, 6]: 3.89 ng·h/mL; CL/F [1, 6]: 423 mL/min; Cmax [1, 6]: 1.38 ng/mL; Vd/F [1, 6]: 108 L; Tmax ([1]; single SC 0.1 mg, read-out: Tmax (median)): 0.5 h; AUC(0-inf) [1, 7]: 13.2 ng·h/mL; AUC(0-t) [1, 7]: 13.2 ng·h/mL; CL/F [1, 7]: 378 mL/min; Cmax [1, 7]: 4.35 ng/mL; Vd/F [1, 7]: 114 L; Tmax ([1]; single SC 0.3 mg, read-out: Tmax (median)): 0.625 h; half-life ([1]; subcutaneous, 1 mg, 2-hour INF 1 mg, read-out: T1/2 (median) (converted)): 3.64 h; half-life ([1]; subcutaneous, 3 mg, 2-hour INF 3 mg, read-out: T1/2 (median) (converted)): 5.25 h; half-life ([1]; subcutaneous, 6 mg, 2-hour INF 6 mg, read-out: T1/2 (median) (converted)): 5.26 h; half-life ([1]; subcutaneous, 6 mg, 3 and 6 mg, read-out: Mean T1/2 at the highest doses (converted)): ~5.2 h; AUC(0-inf) [1, 8]: 43.8 ng·h/mL; AUC(0-t) [1, 8]: 43.7 ng·h/mL; Cmax [1, 8]: 13.1 ng/mL; Vd/F [1, 8]: 120 L; Tmax ([1]; subcutaneous, 2-hour INF 1 mg, read-out: Tmax (median)): 2.25 h; AUC(0-inf) [1, 9]: 141 ng·h/mL; AUC(0-t) [1, 9]: 141 ng·h/mL; Cmax [1, 9]: 39.4 ng/mL; Vd/F [1, 9]: 150 L; Tmax ([1]; subcutaneous, 2-hour INF 3 mg, read-out: Tmax (median)): 2.25 h; AUC(0-inf) [1, 10]: 318 ng·h/mL; AUC(0-t) [1, 10]: 318 ng·h/mL; Cmax [1, 10]: 82.5 ng/mL; Vd/F [1, 10]: 141 L; Tmax ([1]; subcutaneous, 2-hour INF 6 mg, read-out: Tmax (median)): 2.25 h; CL renal [1, 11]: 17500 mL/min; CL renal [1, 3]: 19700 mL/min; CL renal [1, 4]: 17900 mL/min; CL renal [1, 5]: 15600 mL/min; CL renal [1, 6]: 17500 mL/min; CL renal [1, 7]: 14300 mL/min; CL renal ([1]; subcutaneous, 2-hour INF 1 mg, geometric mean (% CV)): 11400 mL/min; CL renal ([1]; subcutaneous, 2-hour INF 3 mg, geometric mean (% CV)): 13900 mL/min; CL renal ([1]; subcutaneous, 2-hour INF 6 mg, geometric mean (% CV)): 16900 mL/min; dose excreted ([1]; sc, 0.003 to 6 mg, bolus and infusion, read-out: Fe, range over cohorts): 3.09 to 5.4%; dose excreted ([1]; sc, 2-hour INF 1 mg, geometric mean (% CV), read-out: Fe (urine)): 3%; dose excreted ([1]; sc, 2-hour INF 3 mg, geometric mean (% CV), read-out: Fe (urine)): 3.94%; dose excreted ([1]; sc, 2-hour INF 6 mg, geometric mean (% CV), read-out: Fe (urine)): 5.38%; dose excreted ([1]; single SC 0.001 mg, only 1 subject above LLOQ, read-out: Fe (urine)): 3.47%; dose excreted ([1]; single SC 0.003 mg, geometric mean, read-out: Fe (urine)): 3.97%; dose excreted ([1]; single SC 0.01 mg, geometric mean, read-out: Fe (urine)): 3.71%; dose excreted ([1]; single SC 0.03 mg, geometric mean, read-out: Fe (urine)): 3.34%; dose excreted ([1]; single SC 0.1 mg, geometric mean, read-out: Fe (urine)): 4.08%; dose excreted ([1]; single SC 0.3 mg, geometric mean, read-out: Fe (urine)): 3.77%; Ae(0-t) (urine) [1, 11]: 34.658 ng; Fe (urine) [1, 11]: 3.466%; Ae(0-t) (urine) [1, 3]: 119.177 ng; Ae(0-t) (urine) [1, 4]: 370.540 ng; Ae(0-t) (urine) [1, 5]: 1003.082 ng; Ae(0-t) (urine) [1, 6]: 4077.298 ng; Ae(0-t) (urine) [1, 7]: 11326.187 ng; pEC50 (human KISS1R): 9.58; Ratio of EC50 of API-MA to kisspeptin (45-54) (human KISS1R; human KISS1R): 0.85
